Data from patent publication US10294202B2, “Pyrrolidinones as herbicides” (FMC Corporation, priority 2013, dated 2019).

Legend:
cocklebur = assay: Test E preemergence herbicide test; type: in vivo, Xanthium strumarium; design: key: 0 = no effect, 100 = complete control
From the text: (§1) Seeds of plant species selected from corn (Zea mays), soybean (Glycine max), velvetleaf (Abutilon theophrasti), lambsquarters (Chenopodium album), wild poinsettia (Euphorbia heterophylla), pigweed, palmer (palmer pigweed, Amaranthus palmeri), waterhemp (common waterhemp, Amaranthus rudis), surinam grass (Brachiaria decumbens), crabgrass, large (large crabgrass, Digitaria sanguinalis), crabgrass, Brazil (Brazilian crabgrass, Digitaria horizontalis), panicum, fall (fall panicum, Panicum dichotomiflorum), foxtail, giant (giant foxtail, Setaria faberii), foxtail, green (green foxtail, Setaria viridis), goosegrass (Eleusine indica), johnsongrass (Sorghum halepense), ragweed (common ragweed, Ambrosia elatior), barnyardgrass (Echinochloa crus-galli), sandbur (southern sandbur, Cenchrus echinatus), arrowleaf […] rhombifolia), ryegrass, Italian (Italian ryegrass, Lolium multiflorum), dayflower, VA (Virginia dayflower, Commelina virginica), field bindweed (Convolvulus arvensis), morningglory (Ipomoea coccinea), nightshade (eastern black nightshade, Solanum ptycanthum), kochia (Kochia scoparia), nutsedge, yellow (yellow nutsedge, Cyperus esculentus), cocklebur (common cocklebur, Xanthium strumarium), smartweed (ladysthumb smartweed, Polygonum Persicaria) and beggarticks (hairy beggarticks, Bidens pilosa), were planted into a silt loam soil and treated preemergence with test chemicals formulated in a non-phytotoxic solvent mixture which included a surfactant. Treated plants and controls were maintained in a greenhouse for 21 days, after which time all species were compared to controls and visually evaluated. Plant response ratings, summarized in Table E, are based on a scale of 0 to 100 where 0 is no effect and 100 is complete control. A dash (-) response means no test result.

smartweed = assay: Test E preemergence herbicide test; type: in vivo, Polygonum Persicaria
From the text: as §1

sedge, umbrella = assay: Test F flood (paddy) test; type: in vivo, Cyperus difformis; conditions: 21 d, scale 0-100
From the text: (§2) Three plastic pots (ca. 16-cm diameter) per rate were partially filled with sterilized Tama silt loam soil comprising a 35:50:15 ratio of sand, silt and clay and 2.6% organic matter. Separate plantings for each of the three pots were as follows. Seeds from the U.S. of monochoria (Monochoria vaginalis), sedge, umbrella (small-flower umbrella sedge, Cyperus difformis), bulrush, […] bulrush, Scirpus juncoides), and […] (purple […] coccinea), were planted into one 16-cm pot for each rate. Seeds from the U.S. of flatsedge, rice (rice flatsedge, Cyperus iria), sprangletop, Brdd. (bearded sprangletop, Leptochloa fascicularis), one stand of 9 or 10 water seeded rice seedlings (Rice, W.S. Jap, Oryza sativa cv. 'Japonica-[…]' or Rice, W.S. Ind, 'Indica'), and two stands of 3 or 4 seedlings of rice, transplanted (transplanted rice, Oryza sativa cv. 'Japonica-[…]') were planted into one 16-cm pot for each rate. Seeds from the U.S. of barnyardgrass (Echinochloa crus-galli), […] (common […], Alisma plantago-aquatica), and watergrass, late (late watergrass, Echinochloa oryzicola) were planted into one 16-cm pot for each rate. Plantings were sequential so that crop and weed species were at the 2.0 to 2.5-leaf stage at time of treatment. Potted plants were grown in a greenhouse with day/night temperature settings of 30/27° C., and supplemental balanced lighting was provided to maintain a 16-h photoperiod. Test pots were maintained in the greenhouse until test completion. At time of treatment, test pots were flooded to 3 cm above the soil surface, treated by application of test compounds directly to the paddy water, and then maintained at that water depth for the duration of the test. Effects of treatments on rice and weeds were visually evaluated by comparison to untreated controls after 21 d. Plant response ratings, summarized in Table F, are based on a scale of 0 to 100 where 0 is no effect and 100 is complete control. A dash (-) response means no test result.

bulrush, hardstem = assay: Test F flood (paddy) test; type: in vivo, Scirpus juncoides; conditions: 21 d, scale 0-100
From the text: as §2

Rice, W.S. Jap = assay: Test F flood (paddy) test; type: in vivo, Oryza sativa cv. Japonica—M202; conditions: 21 d, scale 0-100
How it was run: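 In this paddy assay, 2.0–2.5-leaf plants grown in sterilized Tama silt loam (2.6% organic matter) at 30/27 °C with 16-h photoperiod receive compound via the 3-cm flood water. Control is rated visually at 21 d from 0 (none) to 100 (complete), versus untreated pots.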

soybean (GLXMA) = assay: Test H preemergence mixture test (Colby); type: in vivo, Glycine max; conditions: for Plant response rating, Obsd., GLXMA: 21 d after treatment, scale 0 to 100; for GLXMA Obsd.: applied alone, 21 d, mean of three replicates, scale 0-100

SMILES | Plant response rating, Cocklebur (cocklebur; 62 g ai/ha) | Plant response rating, Cocklebur (cocklebur; 125 g ai/ha) | Plant response rating, Cocklebur (cocklebur; 250 g ai/ha) | Plant response rating, Sedge, Umbrella (sedge, umbrella; 125 g ai/ha) | Plant response rating, Sedge, Umbrella (sedge, umbrella; 250 g ai/ha) | Plant response rating, Sedge, Umbrella (sedge, umbrella; 500 g ai/ha) | Plant response rating, Sedge, Umbrella (sedge, umbrella; 1000 g ai/ha) | Plant response rating, Sedge, Umbrella (sedge, umbrella; 2000 g ai/ha) | Plant response rating, Cocklebur (cocklebur; 16 g ai/ha) | Plant response rating, Cocklebur (cocklebur; 31 g ai/ha) | Plant response rating, Bulrush, Hardstem (bulrush, hardstem; 125 g ai/ha) | Plant response rating, Bulrush, Hardstem (bulrush, hardstem; 250 g ai/ha) | Plant response rating, Bulrush, Hardstem (bulrush, hardstem; 500 g ai/ha) | also measured
O=C1NCC(c2ccc(Cl)c(Cl)c2)C1C(=O)Nc1ccccc1F (racemic) [Compound 14] | 0 | 0 | 0 | – | – | – | – | – | – | – | – | – | – | Plant response rating, Smartweed (smartweed; 125 g ai/ha): 0
O=C1NCCC1C(=O)N(c1ccc(F)c(F)c1)c1ccccc1F (stereo not shown) [Compound 5, N-(3,4-difluorophenyl)-N-(2-fluorophenyl)-2-oxo-3-pyrrolidinecarboxamide] | – | – | – | 0 | 0 | 0 | 0 | 0 | – | – | – | – | – | –
O=C1NCC(c2ccc(F)c(F)c2)C1C(=O)Nc1cccc(F)c1F (stereo not shown) [Compound 17, N-(2,3-difluorophenyl)-4-(3,4-difluorophenyl)-2-oxo-3-pyrrolidinecarboxamide] | 0 | 0 | – | 0 | 0 | 0 | 0 | 20 | 0 | 0 | 0 | 0 | 0 | Plant response rating, Bulrush, Hardstem (bulrush, hardstem; 1000 g ai/ha): 0; Plant response rating, Bulrush, Hardstem (bulrush, hardstem; 2000 g ai/ha): 40; Plant response rating, Rice, W.S. Jap (Rice, W.S. Jap; 125 g ai/ha): 0; Plant response rating, Rice, W.S. Jap (Rice, W.S. Jap; 250 g ai/ha): 15; Plant response rating, Rice, W.S. Jap (Rice, W.S. Jap; 500 g ai/ha): 15; Plant response rating, Rice, W.S. Jap (Rice, W.S. Jap; 1000 g ai/ha): 60; Plant response rating, Rice, W.S. Jap (Rice, W.S. Jap; 2000 g ai/ha): 85
O=C1NCC(c2ccc(C(F)(F)F)cc2)C1C(=O)Nc1cccc(F)c1F (stereo not shown) [Compound 80, N-(2,3-difluorophenyl)-2-oxo-4-[4-(trifluoromethyl)phenyl]-3-pyrrolidinecarboxamide] | 0 | 0 | 0 | – | – | – | – | – | 0 | – | – | – | – | Plant response rating, Obsd., GLXMA (soybean (GLXMA); Cmpd 80 alone 62 g a.i./ha): 12; Plant response rating, Obsd., GLXMA (soybean (GLXMA); Cmpd 80 alone 125 g a.i./ha): 0; GLXMA Obsd. (soybean (GLXMA); 62 g a.i./ha): 12; GLXMA Obsd. (soybean (GLXMA); 125 g a.i./ha): 0; Plant response rating, Smartweed (smartweed; 16 g ai/ha): 0; Plant response rating, Smartweed (smartweed; 31 g ai/ha): 0; Plant response rating, Smartweed (smartweed; 62 g ai/ha): 20; Plant response rating, Smartweed (smartweed; 250 g ai/ha): 40
O=C1NC[C@H](c2cccc(C(F)(F)F)c2)[C@H]1C(=O)Nc1cccc(F)c1F [Compound 206] | 0 | 0 | 0 | – | – | – | – | – | – | 0 | – | – | – | –
CN1CC(c2ccc(F)c(F)c2)C(C(=O)Nc2cccc(F)c2F)C1=O (stereo not shown) [Compound 303] | – | – | – | 0 | 0 | 0 | – | – | – | – | 0 | 70 | 80 | Plant response rating, Bulrush, Hardstem (bulrush, hardstem; 62 g ai/ha): 0; Plant response rating, Sedge, Umbrella (sedge, umbrella; 62 g ai/ha): 0
